# Activity calls are given as the source filed them. The calls are words filed in the database; no cut-off is given here.
# How the values were obtained:
# HCT-116 = experiment: Cytotoxicity against human HCT116 cells by MTT assay; assay type: functional, cell-based
# [1] = Induction of apoptosis in human CLL cells by 3,3'-dihexyloxacarbocyanine iodide staining-based flow cytometry; assay type: functional, cell-based
# B-CLL [2] = experiment: Inhibition of spliceosome-mediated splicing of DNAJB1 gene in human B-CLL cells at 0.1 uM after 4 hrs by RT-PCR analysis; assay type: cell-based
# B-CLL [3] = experiment: Inhibition of spliceosome-mediated splicing of DNAJB1 gene in human B-CLL cells at 0.1 to 1.0 uM after 4 hrs by RT-PCR analysis; assay type: cell-based
# B-CLL [4] = experiment: Inhibition of spliceosome-mediated splicing of DNAJB1 gene in human B-CLL cells at 10 uM after 4 hrs by RT-PCR analysis; assay type: cell-based
Structure (SMILES),IC50 (HCT-116) [nM],IC50 [1] [nM],other results
CC[C@H](OC)[C@@H](C)[C@H]1O[C@@H]1[C@H](OC(C)=O)[C@H](C)/C=C/C=C(\C)[C@H]1OC(=O)C[C@H](OC(C)=O)CC[C@@](C)(O)[C@@H](OC(C)=O)/C=C/[C@@H]1C,542,–,–
CC[C@H](OC)[C@@H](C)[C@H]1O[C@@H]1[C@@H](O)[C@H](C)/C=C/C=C(\C)[C@H]1OC(=O)CCCCCC/C=C/[C@@H]1C,> 50000,–,–
CC[C@H](O)[C@@H](C)[C@H]1O[C@@H]1C[C@H](C)/C=C/C=C(\C)[C@H]1OC(=O)CCCCCC/C=C/[C@H]1C,> 50000,–,–
CC[C@H](OC)[C@@H](C)[C@H]1O[C@@H]1[C@@H](O)[C@@H](C)/C=C/C=C(\C)[C@H]1OC(=O)C[C@H](O)CC[C@@](C)(O)[C@@H](OC(C)=O)/C=C/[C@@H]1C,23,> 50000,–
CC[C@H](OC)[C@@H](C)[C@H]1O[C@@H]1[C@@H](O)[C@H](C)/C=C/C=C(\C)[C@H]1OC(=O)C[C@H](O)CCCC/C=C/[C@@H]1C,> 50000,–,–
CC[C@H](OC)[C@@H](C)[C@H]1O[C@@H]1[C@H](O)[C@H](C)/C=C/C=C(\C)[C@H]1OC(=O)C[C@H](O)CC[C@@](C)(O)[C@@H](OC(C)=O)/C=C/[C@@H]1C,23.5,2.1,Activity (B-CLL [2]): Active
CC[C@H](O)[C@@H](C)[C@H]1O[C@@H]1C[C@H](C)/C=C/C=C(\C)[C@H]1OC(=O)CCCCCC/C=C/[C@@H]1C,> 50000,–,–
CC[C@H](O)[C@@H](C)[C@H]1O[C@@H]1C[C@H](C)/C=C/C=C(\C)[C@H]1OC(=O)C[C@H](O)CC[C@@](C)(O)[C@@H](OC(C)=O)CC[C@@H]1C [PLADIENOLIDE B],24.8,30.5,Activity (B-CLL [2]): Active
CC[C@H](OC)[C@@H](C)[C@H]1O[C@@H]1[C@@H](O)[C@H](C)/C=C/C=C(\C)[C@H]1OC(=O)C[C@H](O)CC[C@@](C)(O)[C@@H](OC(C)=O)/C=C/[C@@H]1C,0.8,–,–
CC[C@H](OC)[C@@H](C)[C@H]1C[C@@H]1[C@@H](O)[C@H](C)/C=C/C=C(\C)[C@H]1OC(=O)C[C@H](O)CC[C@@](C)(O)[C@@H](OC(C)=O)/C=C/[C@@H]1C,42.9,103,Activity (B-CLL [2]): Active; Activity (B-CLL [3]): Active
CC[C@H](OC)[C@@H](C)[C@H]1C[C@@H]1[C@@H](O)[C@@H](C)/C=C/C=C(\C)[C@H]1OC(=O)C[C@H](O)CC[C@@](C)(O)[C@@H](OC(C)=O)/C=C/[C@@H]1C,82.3,–,–
Nc1nc(F)nc2c1ncn2[C@@H]1O[C@H](CO)[C@@H](O)[C@@H]1O,–,–,Activity (B-CLL [4]): inactive
CC[C@H](OC)[C@@H](C)[C@H]1O[C@@H]1[C@H](O)[C@@H](C)/C=C/C=C(\C)[C@H]1OC(=O)C[C@H](O)CC[C@@](C)(O)[C@@H](OC(C)=O)/C=C/[C@@H]1C,3.7,109,–
CC[C@H](OC)[C@@H](C)[C@H]1O[C@@H]1[C@H](OC(C)=O)[C@H](C)/C=C/C=C(\C)[C@H]1OC(=O)C[C@H](O)CC[C@@](C)(O)[C@@H](OC(C)=O)/C=C/[C@@H]1C,142,–,–

# — ChEMBL document CHEMBL2417526, “Stabilized cyclopropane analogs of the splicing inhibitor FD-895” (J Med Chem, 2013)
